Measurements: patent US12653851B2, “Isolated recombinant oncolytic adenoviruses, pharmaceutical compositions, and uses thereof for drugs for treatment of tumors and/or cancers” (HANGZHOU CONVERD CO., LTD., priority 2017, dated 2026)
Entries after “also recorded” stand apart in the source; their conditions may differ.

What was measured:
[1] = test system: hPDL1 mRNA (human PDL1 mRNA); experiment: inhibitory effect of shPDL1 on hPDL1 mRNA, Real-time PCR; type: cell-based; details: U251 and H460 cells, 24 h and 48 h after transfection, compared to control shRNA
Protocol: U251 and H460 cells were seeded in 12-well plates at 2×10^5 cells per well, respectively, 12 hours in advance. U251 and H460 cells in each well were transfected with 1.6 μg shRNA expression vector DNA in a ratio to 4 μl lipofectamin 2000. Two cell samples were taken over 24 hours and 48 hours, respectively. After the total RNA was extracted and reverse transcription was performed, the expression level of human PDL1 mRNA in cells was detected by Real-time PCR with the mRNA level of GAPDH gene as a control.

[2] = test system: human PDL1 protein fused with 3×FLAG tag; experiment: inhibitory effect of shPDL1 on over-expressed hPDL1 protein in 293T cells, Western blot; type: cell-based; details: 293T cells co-transfected 1:1 with pcDNA3.3-hPDL1-3×FLAG, 48 hours
Protocol: 293T cells were transiently transfected with plasmids pSGU6/GFP/Neo-shPDL1-NC, pSGU6/GFP/Neo-shPDL1-1, pSGU6/GFP/Neo-shPDL1-2 and pSGU6/GFP/Neo-shPDL1-3 with pcDNA3.3-hPDL1-3×FLAG at an equimolar ratio (1:1), respectively, wherein plasmid pcDNA3.3-hPDL1-3×FLAG expresses the human PDL1 protein fused with 3×FLAG tag. Cell samples were collected after 48 hours, and Western blot analysis was performed after cell lysis.

Row | Substance | inhibitory effect on hPDL1 mRNA [1] | over-expressed hPDL1 protein [2]
1 | shPDL1-#1 (GGGAAATGGAGGATAAGAACATTCAAGAGATGTTCTTATCCTCCATTTCCCTT; expressed or natural sequence) | inhibitory effect; also recorded: most significant inhibitory effect | significantly reduce
2 | shPDL1-#2: shRNA (coding sequence SEQ ID NO. 19) targeting region 430-452 of human PDL1 mRNA (DNA GGATCCAGTCACCTCTGAACATTCAAGAGATGTTCAGAGGTGACTGGATCCTT) | inhibitory effect | 
3 | shPDL1-#3: shRNA (coding sequence SEQ ID NO. 22) targeting region 589-611 of human PDL1 mRNA (DNA GAGAATCAACACAACAACTAATTCAAGAGATTAGTTGTTGTGTTGATTCTCTT) | inhibitory effect | 
